According to patent US10670605B2, “Cysteine reactive probes and uses thereof” (The Scripps Research Institute, priority 2015, dated 2020):
Values joined by “and” are separate entries in the source; they are usually repeats but may differ in a detail not shown here. Identical values can stand only once. Each block holds one compound with its values, some of them ahead of it.

Key:
Assay in all cases: Competitive isoTOP-ABPP, cell lysates
Assay type in all cases: binding
ACAT1 C413 (P24752) = molecular target: T1, ACAT1 C413 (P24752) (Homo sapiens, UniProt P24752); conditions: for R value (DMSO/fragment) / isoTOP-ABPP ratio P24752_C413: 500 μM; for isoTOP-ABPP reactivity ratio, P24752_C413: 500 μm
T1 sequence (P24752 34-427): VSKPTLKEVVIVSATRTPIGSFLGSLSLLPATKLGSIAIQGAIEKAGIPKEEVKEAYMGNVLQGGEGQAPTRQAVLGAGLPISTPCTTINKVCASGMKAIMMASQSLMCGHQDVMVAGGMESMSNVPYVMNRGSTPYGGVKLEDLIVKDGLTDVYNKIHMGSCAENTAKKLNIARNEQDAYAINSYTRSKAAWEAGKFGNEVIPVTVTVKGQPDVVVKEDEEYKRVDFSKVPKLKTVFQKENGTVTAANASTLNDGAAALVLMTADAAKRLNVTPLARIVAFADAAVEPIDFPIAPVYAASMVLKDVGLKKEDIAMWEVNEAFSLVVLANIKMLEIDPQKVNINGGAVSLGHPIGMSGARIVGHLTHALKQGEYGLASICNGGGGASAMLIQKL

ACAT1 C196 (P24752) = molecular target: T2, ACAT1 C196 (P24752) (Homo sapiens, UniProt P24752); conditions: for R value (DMSO/fragment) / isoTOP-ABPP ratio, P24752_C196: 500 μM; for isoTOP-ABPP reactivity ratio, P24752_C196: 500 μm
T2 sequence (P24752 34-427): T1 sequence (P24752 34-427)

ERCC3 C342 (P19447) = molecular target: T3, ERCC3 C342 (P19447) (Homo sapiens, UniProt P19447); conditions: for R value (DMSO/fragment) / isoTOP-ABPP ratio P19447_C342: 500 μM; for R value (DMSO/fragment): in vitro, MDA-MB-231; for isoTOP-ABPP ratio P19447_C342: invitro; for isoTOP-ABPP ratio (reactivity profile), P19447_C342: 500 μm in-vitro ramos_231
T3 sequence (P19447 1-782): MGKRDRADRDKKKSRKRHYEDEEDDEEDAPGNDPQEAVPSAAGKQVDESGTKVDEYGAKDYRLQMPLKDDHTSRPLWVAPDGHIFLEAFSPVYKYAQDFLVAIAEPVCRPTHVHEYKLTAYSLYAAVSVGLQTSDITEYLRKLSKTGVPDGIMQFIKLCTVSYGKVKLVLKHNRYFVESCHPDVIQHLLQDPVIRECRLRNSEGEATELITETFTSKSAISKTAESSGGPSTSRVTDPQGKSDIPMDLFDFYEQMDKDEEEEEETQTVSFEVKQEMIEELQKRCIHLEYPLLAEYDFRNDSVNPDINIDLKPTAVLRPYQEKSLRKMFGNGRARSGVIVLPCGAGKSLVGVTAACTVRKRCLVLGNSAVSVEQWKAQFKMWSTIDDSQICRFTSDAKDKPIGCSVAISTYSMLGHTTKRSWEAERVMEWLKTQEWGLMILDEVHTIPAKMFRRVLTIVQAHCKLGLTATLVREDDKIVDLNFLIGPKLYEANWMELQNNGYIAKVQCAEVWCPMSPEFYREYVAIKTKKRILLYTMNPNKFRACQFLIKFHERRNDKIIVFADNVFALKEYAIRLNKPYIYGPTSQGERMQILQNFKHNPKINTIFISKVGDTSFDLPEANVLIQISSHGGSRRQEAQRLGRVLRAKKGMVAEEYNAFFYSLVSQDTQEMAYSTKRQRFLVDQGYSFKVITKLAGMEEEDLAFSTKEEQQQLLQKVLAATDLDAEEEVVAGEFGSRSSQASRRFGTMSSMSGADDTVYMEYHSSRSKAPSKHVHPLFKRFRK

SMILES: COc1ccc2c(c1)CCCN2C(=O)CCl [compound 2]
R value (DMSO/fragment) (ACAT1 C413 (P24752); in vitro, MDA-MB-231): 18.1
R value (DMSO/fragment) (ACAT1 C196 (P24752); in vitro, MDA-MB-231): 12.4
R value (DMSO/fragment) (ACAT1 C196 (P24752); invitro, ramos): 9.3
R value (DMSO/fragment) (ERCC3 C342 (P19447)): 20.0

SMILES: C=CC(=O)N(c1ccccc1)c1ccc(Br)cc1 [compound 5]
isoTOP-ABPP ratio P24752_C413 (ACAT1 C413 (P24752); invitro, 231): 1.3
isoTOP-ABPP ratio, P24752_C196 (ACAT1 C196 (P24752); invitro, 231): 1.5
isoTOP-ABPP ratio, P24752_C196 (ACAT1 C196 (P24752); invitro, ramos): 2.2
isoTOP-ABPP ratio P19447_C342 (ERCC3 C342 (P19447); ramos): 4.1

SMILES: O=C(CCl)N1CCOCC1 [compound 22]
isoTOP-ABPP ratio (reactivity profile), P24752_C413 (ACAT1 C413 (P24752); 500 μm in-vitro ramos): 1.1
isoTOP-ABPP ratio (reactivity profile), P24752_C413 (ACAT1 C413 (P24752); 500 μm in-vitro ramos_231): 1.1
isoTOP-ABPP ratio (reactivity profile), P24752_C196 (ACAT1 C196 (P24752); 500 μm in-vitro ramos): 0.7
isoTOP-ABPP ratio (reactivity profile), P24752_C196 (ACAT1 C196 (P24752); 500 μm in-vitro ramos_231): 1.4

SMILES: O=C(CCl)N(Cc1ccc(F)cc1)C12CC3CC(CC(C3)C1)C2 [compound 34]
isoTOP-ABPP reactivity ratio, P24752_C413 (ACAT1 C413 (P24752); in-vitro_ramos): 1.3
isoTOP-ABPP reactivity ratio, P24752_C413 (ACAT1 C413 (P24752); in-vitro_ramos_231): 0.9
isoTOP-ABPP reactivity ratio, P24752_C196 (ACAT1 C196 (P24752); in-vitro_ramos): 1.0
isoTOP-ABPP reactivity ratio, P24752_C196 (ACAT1 C196 (P24752); in-vitro_ramos_231): 0.8

Second part, the compound after the results:

isoTOP-ABPP ratio (reactivity profile), P24752_C413 (ACAT1 C413 (P24752); 500 μm in-vitro ramos): 1.3
isoTOP-ABPP ratio (reactivity profile), P24752_C413 (ACAT1 C413 (P24752); 500 μm in-vitro ramos_231): 0.9 and 1.1
isoTOP-ABPP ratio (reactivity profile), P24752_C196 (ACAT1 C196 (P24752); 500 μm in-vitro ramos): 1.1
isoTOP-ABPP ratio (reactivity profile), P24752_C196 (ACAT1 C196 (P24752); 500 μm in-vitro ramos_231): 0.9 and 1.0
isoTOP-ABPP ratio (reactivity profile), P19447_C342 (ERCC3 C342 (P19447)): 0.8 and 1.1
SMILES: CC(C)CCOCCNC(=O)CCl [compound 27]

R value (DMSO/fragment) (ACAT1 C413 (P24752); in vitro, MDA-MB-231): 15.3
R value (DMSO/fragment) (ACAT1 C413 (P24752); invitro, ramos): 20.0
R value (DMSO/fragment) (ACAT1 C196 (P24752); in vitro, MDA-MB-231): 1.7
R value (DMSO/fragment) (ACAT1 C196 (P24752); invitro, ramos): 3.1
R value (DMSO/fragment) (ERCC3 C342 (P19447)): 12.1
SMILES: O=C(CCl)Nc1cc(C(F)(F)F)cc(C(F)(F)F)c1 [compound 3]

isoTOP-ABPP ratio P24752_C413 (ACAT1 C413 (P24752); invitro, 231): 1.5
isoTOP-ABPP ratio P24752_C413 (ACAT1 C413 (P24752); invitro, ramos): 1.1
isoTOP-ABPP ratio, P24752_C196 (ACAT1 C196 (P24752); invitro, 231): 1.2
isoTOP-ABPP ratio, P24752_C196 (ACAT1 C196 (P24752); invitro, ramos): 0.9
isoTOP-ABPP ratio P19447_C342 (ERCC3 C342 (P19447); 231): 3.0
SMILES: O=C(CCl)NC(=O)NC12CC3CC(CC(C3)C1)C2 [compound 12]

isoTOP-ABPP ratio (reactivity profile), P24752_C413 (ACAT1 C413 (P24752); 500 μm in-vitro ramos): 1.4
isoTOP-ABPP ratio (reactivity profile), P24752_C413 (ACAT1 C413 (P24752); 500 μm in-vitro ramos_231): 1.4
isoTOP-ABPP ratio (reactivity profile), P24752_C196 (ACAT1 C196 (P24752); 500 μm in-vitro ramos): 1.1
isoTOP-ABPP ratio (reactivity profile), P24752_C196 (ACAT1 C196 (P24752); 500 μm in-vitro ramos_231): 1.0
isoTOP-ABPP ratio (reactivity profile), P19447_C342 (ERCC3 C342 (P19447)): 6.1
SMILES: O=C(CCl)NC12CC3CC(CC(C3)C1)C2 [compound 21]
